Our source for the TGI values is PubChem BioAssay (NCI).

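Cultured in 96-well plates, cells were exposed to test compound for 48 hours across five concentrations. TGI: total growth inhibition.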 Where a SMILES comes first, the peptide text is derived from it. [ ]: non-standard residue; d: D form. The star is where a group is joined. Bn2Val = CC(C)[C@@H](C(=O)*)N(Cc1ccccc1)Cc1ccccc1; NH(3,4-diMeO-benzyl) = COc1ccc(CN*)cc1OC; NMeV = CN[C@H](C(=O)O)C(C)C

Among the test systems are SN12C renal; HOP-62 NSCLC; MDA-N; OVCAR-3 ovarian; CCRF-CEM leukemia; MDA-MB-435; SK-OV-3 ovarian; SK-MEL-5 melanoma; SF-268 CNS; HCC-2998 colon; ACHN renal; 786-0 renal; A498 renal; OVCAR-4 ovarian; NCI-H522 lung; U251 CNS; HOP-92 NSCLC.
What all share (test): growth of human tumour cells (NCI), 48 h

`CN(C)Cc1cc(/C=C/C(=O)c2ccc(Cl)c(Cl)c2)cc(CN(C)C)c1O`: the TGI in the test on SN12C renal was determined as 30.2 µM; with HOP-62 NSCLC, 38 µM; with MDA-N, 29.8 µM; in the test on OVCAR-3 ovarian, 23.8 µM; in the test on CCRF-CEM leukemia, 16.9 µM; in the test on MDA-MB-435, 23.3 µM. In addition, the TGI with SK-OV-3 ovarian is 36.9 µM; in the test on SK-MEL-5 melanoma it was 28.1 µM; in the test on SF-268 CNS, 23.7 µM; in the test on HCC-2998 colon it was 19.3 µM; with ACHN renal, 25.4 µM; in the test with 786-0 renal, 21.3 µM. The compound further had a TGI with A498 renal of 32.4 µM.
As for `O=C1OC(CS(=O)(=O)c2ccccc2)CC1O` (stereo not drawn), the TGI in the test on OVCAR-4 ovarian, in the test on SN12C renal, in the test on HOP-62 NSCLC, with MDA-N, in the test with OVCAR-3 ovarian and in the test with CCRF-CEM leukemia was above 100 µM in each case. Besides, the TGI with MDA-MB-435, with SK-OV-3 ovarian, in the test on SK-MEL-5 melanoma, in the test on NCI-H522 lung, in the test on U251 CNS and in the test with SF-268 CNS was above 100 µM each time. In addition, the TGI in the test on HCC-2998 colon, with ACHN renal, with 786-0 renal and in the test with A498 renal was above 100 µM throughout.
Consider `CCOC(=O)c1cc(Br)c(-c2onc(C)c2Br)n1C`, for which the TGI in the test with OVCAR-4 ovarian is above 100 µM; with SN12C renal, 56.8 µM; in the test on HOP-62 NSCLC, above 100 µM; in the test with MDA-N, above 100 µM; with OVCAR-3 ovarian, above 100 µM; with CCRF-CEM leukemia, above 100 µM. The TGI in the test with MDA-MB-435 was above 100 µM; in the test on SK-OV-3 ovarian, 59.8 µM; in the test with SK-MEL-5 melanoma, 32.4 µM; with NCI-H522 lung, 72.7 µM; in the test on U251 CNS, above 100 µM; in the test on SF-268 CNS, above 100 µM. Besides, the TGI in the test on HCC-2998 colon is above 100 µM; in the test with ACHN renal it was above 100 µM; in the test on 786-0 renal it was 86.1 µM; in the test on A498 renal, above 100 µM.
As to `C#CCCOC(=O)c1ccccc1OC(C)=O`, the TGI with OVCAR-4 ovarian, in the test on SN12C renal, in the test with HOP-62 NSCLC, in the test on MDA-N, in the test on OVCAR-3 ovarian and in the test with CCRF-CEM leukemia was above 100 µM throughout. For the same compound, the TGI with MDA-MB-435, in the test with SK-OV-3 ovarian, in the test with HOP-92 NSCLC, in the test with SK-MEL-5 melanoma, in the test on NCI-H522 lung and with U251 CNS was above 100 µM each time. Also, the TGI in the test on SF-268 CNS, with ACHN renal, in the test on 786-0 renal and with A498 renal was above 100 µM each time.
Regarding `COC(=O)C1(C(=O)OC)CC2=C(S(=O)(=O)c3ccccc3)C[C@H](C#N)[C@H]2C1`, the TGI with OVCAR-4 ovarian, in the test on SN12C renal, with HOP-62 NSCLC, with MDA-N, in the test on CCRF-CEM leukemia and with MDA-MB-435 was above 100 µM each time. Further, the TGI in the test with SK-OV-3 ovarian, in the test on HOP-92 NSCLC, in the test on SK-MEL-5 melanoma, in the test with NCI-H522 lung, in the test with U251 CNS and with SF-268 CNS was above 100 µM each time. Besides, the TGI in the test on ACHN renal, in the test with 786-0 renal and in the test with A498 renal was above 100 µM in each case.
For `COc1ccc(CNC(=O)[C@@H]2CCCN2C(=O)[C@@H]2CCCN2C(=O)[C@H](C(C)C)N(C)C(=O)[C@@H](NC(=O)[C@H](C(C)C)N(Cc2ccccc2)Cc2ccccc2)C(C)C)cc1OC` (Bn2Val-V[NMeV]PP-{NH(3,4-diMeO-benzyl)}), the TGI with OVCAR-4 ovarian is 42.6 µM; with SN12C renal it was 29.9 µM; in the test on HOP-62 NSCLC, 32.3 µM; in the test with MDA-N, 30.5 µM; with OVCAR-3 ovarian, 27.6 µM; in the test on CCRF-CEM leukemia, above 100 µM. Moreover, the TGI with MDA-MB-435 worked out at 39 µM; with SK-OV-3 ovarian, 31.4 µM; in the test with HOP-92 NSCLC, 28.9 µM; with SK-MEL-5 melanoma it was 20.4 µM; in the test on NCI-H522 lung it was 20.6 µM; in the test on U251 CNS, 45.7 µM. The TGI with SF-268 CNS was above 48.1 µM; in the test with ACHN renal it was 28 µM; with 786-0 renal it was 26.5 µM; in the test on A498 renal, 31.6 µM.
Turning to `COC(=O)[C@H](COC(=O)/C=C/c1ccc(OC(C)=O)c(OC(C)=O)c1)NC(=O)/C=C/c1ccc(OC(C)=O)c(OC(C)=O)c1`, the TGI in the test with OVCAR-4 ovarian is 38.9 µM; in the test with SN12C renal, 36.4 µM; in the test with HOP-62 NSCLC, 34.3 µM; in the test on MDA-N, 38.8 µM; in the test on OVCAR-3 ovarian it was 33.5 µM; in the test with CCRF-CEM leukemia, above 100 µM. For the same compound, the TGI is 45.5 µM with MDA-MB-435; 54.3 µM in the test on SK-OV-3 ovarian; 49.3 µM with HOP-92 NSCLC; 31.6 µM in the test with SK-MEL-5 melanoma; above 100 µM in the test on U251 CNS; 36.6 µM in the test with HCC-2998 colon. Also, the TGI in the test on ACHN renal is 42.2 µM; in the test with 786-0 renal, 32.1 µM; in the test on A498 renal it was above 100 µM.
With `C=C(CN)CO[Si](C)(C)C(C)(C)C`, the TGI with SN12C renal, with HOP-62 NSCLC, in the test with MDA-N, in the test on OVCAR-3 ovarian, in the test with CCRF-CEM leukemia and in the test with MDA-MB-435 was above 100 µM in each case. Also, the TGI with SK-OV-3 ovarian, in the test with SK-MEL-5 melanoma, with NCI-H522 lung, in the test on U251 CNS, in the test with SF-268 CNS and in the test with HCC-2998 colon was above 100 µM each time. In addition, the TGI in the test with ACHN renal, in the test on 786-0 renal and in the test with A498 renal was above 100 µM throughout.
On to `Cc1ccc(/C=N/NS(=O)(=O)c2ccc(/C=C3\NC(=O)NC3=O)cc2)cc1`, for which the TGI is above 100 µM with OVCAR-4 ovarian; above 100 µM with SN12C renal; 91.1 µM with HOP-62 NSCLC; above 100 µM in the test with MDA-N; above 100 µM in the test on OVCAR-3 ovarian; above 100 µM with CCRF-CEM leukemia. For the same compound, the TGI is above 100 µM in the test on MDA-MB-435; above 100 µM in the test with SK-OV-3 ovarian; above 100 µM with HOP-92 NSCLC; above 100 µM in the test with SK-MEL-5 melanoma; above 100 µM in the test on U251 CNS; 57.7 µM in the test on SF-268 CNS. Also, the TGI with HCC-2998 colon, in the test with ACHN renal, with 786-0 renal and in the test on A498 renal was above 100 µM each time.
